As a reminder, the IC50 is the midpoint of a concentration-inhibition curve.

Structures can show the parent of a compound that is named as a salt.

Test [1] relates to splenic cells of Lewis rats (T lymphocyte blastogenesis). In words: Test 2: T-cell growth inhibitor activity (T lymphocyte blastogenesis, Concanavalin A, AlamarBlue). It counts as cell-based. The conditions noted are these: Lewis rat splenic cells, Concanavalin A 1 μg/mL, 72 hours, read-out: Test 2: T-cell growth inhibitory activity IC50. As for the experimental part:
Test 2: Determination of T-Cell Growth Inhibitor Activity
The T lymphocyte blastogenesis test was performed in microtiter plates with each well containing 1.5×10^5 splenic cells of Lewis rats in 0.1 mL RPMI-1640 medium supplemented with 10% fetal bovine serum (FBS), […] 2-mercaptoethanol, penicilln (100 units/mL) and streptomycin (100 μg/mL), to which Concanavalin A (1 μg/mL) was added. The cells were incubated at 37° C. in a humidified atmosphere of 5% CO2 for 72 hours. After the culture period, suppressive activities of the test compounds in T lymphocyte blastogenesis were quantified by AlamarBlue (trademark) Assay. The test samples were dissolved in DMSO and further diluted with RPMI-1640 medium and added to the culture. The activities of the test compounds were expressed as IC50.

Test [2] has as its system T1, human histone deacetylase partially purified from human T cell leukemia Jurkat cells.
T1 construct: The human histone deacetylase was partially purified from human T cell leukemia Jurkat cells
Nature of the test: Test 1: Determination of histone deacetylase inhibitor activity ([3H]acetyl histone deacetylation). Type of test: biochemical. The settings on record: partially purified human HDAC from Jurkat cells, [3H]acetyl histone substrate, 25° C., 30 minutes; read-out: Test 1: HDAC inhibitory activity IC50. As for the experimental part: Test 1: Determination of Histone Deacetylase Inhibitor Activity
The partial purification of human histone deacetylase, the preparation of [^3H] acetyl histones, and the assay for histone deacetylase activity were performed basically according to the method as proposed by Yoshida et al. as follows.
Partial Purification of Human Histone Deacetylase
The human histone deacetylase was partially purified from human T cell leukemia Jurkat cells. Jurkat cells (5×10^8 cells) were suspended in 40 mL of the HDA buffer consisting of 15 mM potassium phosphate, pH 7.5, 5% glycerol and 0.2 mM EDTA. After homogenization, nuclei were collected by centrifugation (35,000×g, 10 min) and homogenized in 20 mL of the same buffer supplemented with 1 M (NH4)2SO4. The viscous homogenate was sonicated and clarified by centrifugation (35,000×g, 10 min), and the deacetylase was precipitated by raising the concentration of (NH4)2SO4 to 3.5 M. The precipitated protein was dissolved in 10 mL of the HDA buffer and dialyzed against 4 liters of the same buffer. The dialyzate was then loaded onto a DEAE-cellulose (Whatman DE52) column (25×85 mm) equilibrated with the same buffer and eluted with 300 mL of a linear gradient (0-0.6 M) of NaCl. A single peak of histone deacetylase activity appeared between 0.3 and 0.4 M NaCl.
Preparation of [^3H] Acetyl Histone
To obtain [^3H] acetyl-labeled histone as the substrate for the histone deacetylase assay, 1×10^8 cells of Jurkat in 20 mL of RPMI-1640 medium (supplemented with 10% FBS, penicillin (50 units/mL) and streptomycin (50 μg/mL)) were incubated with 300 MBq [^3H] sodium acetate in the presence of 5 mM sodium butyrate for 30 minutes in 5% CO2-95% air atmosphere at 37° C. in a […] flask, harvested into a centrifuge tube (50 mL), collected by centrifugation at 1000 rpm for 10 minutes, and washed once with phosphate-buffered saline. The washed cells were suspended in 15 mL of ice-cold lysis buffer (10 mM Tris-HCl, 50 mM sodium bisulfite, 1% Triton X-100, 10 mM MgCl2, 8.6% sucrose, pH 6.5). After Dounce homogenization (30 stroke), the nuclei were collected by centrifugation at 1000 rpm for 10 minutes, washed 3 times with 15 mL of the lysis buffer, and once with 15 mL of ice-cooled washing buffer (10 mM Tris-HCl, 13 mM EDTA, pH 7.4) successively. The pellet was suspended in 6 mL of ice-cooled water using a mixer, and 68 μl of H2SO4 was added to the suspension to give a concentration of 0.4 N. After incubation at 4° C. for 1 hour, the suspension was centrifuged for 5 minutes at 15,000 rpm, and the supernatant was taken and mixed with 60 mL of acetone. After overnight incubation at −20° C., the coagulated material was collected by microcentrifugation, air-dried, and stored at −80° C.
Assay for Histone Deacetylase Activity
For the standard assay, 10 μl of [^3H] acetyl-labeled histones were added to 90 μl of the enzyme fraction, and the mixture was incubated at 25° C. for 30 minutes. The reaction was stopped by addition of 10 μl of HCl. The released [^3H] acetic acid was extracted with 1 mL of ethyl acetate, and 0.9 mL of the solvent layer was taken into 10 mL of toluene scintillation solution for determination of radioactivity.

`CC(C)(CN1CC[C@@H](Nc2cnc(/C=C/C(=O)NO)cn2)C1)c1ccccc1` [Example 28, (2E)-N-hydroxy-3-[5-[{(3R)-1-(2-methyl-2-phenylpropyl)-3-pyrrolidinyl}amino]-2-pyrazinyl]acrylamide dihydrochloride]: the values for the half-maximal inhibitory concentration (IC50) in test [1] and in test [2] were 11 nM and 4.2 nM, respectively.
Turning to `COc1ccc(F)cc1CN1CC[C@@H](Nc2cnc(/C=C/C(=O)NO)cn2)C1` [Example 15, (2E)-3-(5-{[(3R)-1-(5-fluoro-2-methoxybenzyl)-3-pyrrolidinyl]amino}-2-pyrazinyl)-N-hydroxyacrylamide dihydrochloride], the concentration for half-maximal inhibition (IC50) is 6.4 nM in test [1] and 4.4 nM in test [2].
As to `COc1cc(CN2CC[C@@H](Nc3cnc(/C=C/C(=O)NO)cn3)C2)ccc1F` [Example 11, (2E)-3-(5-{[(3R)-1-(4-fluoro-3-methoxybenzyl)-3-pyrrolidinyl]amino}-2-pyrazinyl)-N-hydroxyacrylamide dihydrochloride], the figures for the IC50 in test [1] and in test [2] were 4.5 nM and 0.95 nM, respectively.
In the same order, the values of `O=C(/C=C/c1cnc(N[C@@H]2CCN(CC34CCC(CC3)O4)C2)cn1)NO` [Example 14, (2E)-N-hydroxy-3-(5-{[(3R)-1-(7-oxabicyclo[2.2.1]hept-1-ylmethyl)-3-pyrrolidinyl]amino}-2-pyrazinyl)acrylamide dihydrochloride] are 1.2 nM and 3.8 nM.
Turning to `O=C(/C=C/c1cnc(N[C@@H]2CCCN(CCc3ccc(F)cc3F)C2)cn1)NO` [Example 8, (2E)-3-[5-({(3R)-1-[2-(2,4-difluorophenyl)ethyl]-3-piperidinyl}amino)-2-pyrazinyl]-N-hydroxyacrylamide dihydrochloride], the concentration for half-maximal inhibition (IC50) in test [1] turned out to be 1.1 nM; in test [2] it was 1.7 nM.
With `O=C(/C=C/c1cnc(N[C@@H]2CCN(CC3CCCC3)C2)cn1)NO` [Example 12, (2E)-3-(5-{[(3R)-1-(cyclopentylmethyl)-3-pyrrolidinyl]amino}-2-pyrazinyl)-N-hydroxyacrylamide dihydrochloride], the IC50 came out at 2 nM in test [1] and 0.59 nM in test [2].
On to `O=C(/C=C/c1cnc(N[C@@H]2CCN(CCc3c(F)cccc3F)C2)cn1)NO` [Example 3, (2E)-3-[5-({(3R)-1-[2-(2,6-difluorophenyl)ethyl]-3-pyrrolidinyl}amino)-2-pyrazinyl]-N-hydroxyacrylamide dihydrochloride], for which the IC50 in test [1] came out at 1.2 nM; in test [2], 2.7 nM.
Take `O=C(/C=C/c1cnc(N[C@@H]2CCCN(CCc3ccc(F)c(F)c3)C2)cn1)NO` [Example 9, (2E)-3-[5-({(3R)-1-[2-(3,4-difluorophenyl)ethyl]-3-piperidinyl}amino)-2-pyrazinyl]-N-hydroxyacrylamide dihydrochloride]: the IC50 in test [1] turned out to be 1.8 nM; in test [2] it was 1 nM.
Consider `O=C(/C=C/c1cnc(N[C@@H]2CCCN(CCc3ccccc3Cl)C2)cn1)NO` [Example 26, (2E)-3-[5-({(3R)-1-[2-(2-chlorophenyl)ethyl]-3-piperidinyl}amino)-2-pyrazinyl]-N-hydroxyacrylamide dihydrochloride], for which the 50% inhibitory concentration (IC50) in test [1] came out at 0.44 nM; in test [2], 1.4 nM.
Take `O=C(/C=C/c1cnc(N[C@@H]2CCCN(CCC3CCCC3)C2)cn1)NO` [Example 24, (2E)-3-(5-{[(3R)-1-(2-cyclopentylethyl)-3-piperidinyl]amino}-2-pyrazinyl)-N-hydroxyacrylamide dihydrochloride]: the figures for the concentration for half-maximal inhibition (IC50) in test [1] and in test [2] were 2.4 nM and 0.81 nM, respectively.
For `O=C(/C=C/c1cnc(N[C@@H]2CCN(CCC3CCCCC3)C2)cn1)NO` [Example 21, (2E)-3-(5-{[(3R)-1-(2-cyclohexylethyl)-3-pyrrolidinyl]amino}-2-pyrazinyl)-N-hydroxyacrylamide dihydrochloride], the results for the half-inhibitory concentration (IC50) in test [1] and in test [2] were 2.4 nM and 0.98 nM, respectively.
Turning to `O=C(/C=C/c1cnc(N[C@@H]2CCN(Cc3cccc4ccccc34)C2)cn1)NO` [Example 16, (2E)-N-hydroxy-3-[5-[{(3R)-1-(1-naphthylmethyl)-3-pyrrolidinyl}amino]-2-pyrazinyl]acrylamide dihydrochloride], the half-inhibitory concentration (IC50) in test [1] was 4.1 nM; in test [2] it was 6.6 nM.
The like results for `O=C(/C=C/c1cnc(N[C@@H]2CCN(CCC3CCCC3)C2)cn1)NO` [Example 20, (2E)-3-(5-{[(3R)-1-(2-cyclopentylethyl)-3-pyrrolidinyl]amino}-2-pyrazinyl)-N-hydroxyacrylamide dihydrochloride] were, in that order, 2.1 nM and 0.79 nM.
With `O=C(/C=C/c1cnc(N[C@@H]2CCCN(CCc3ccccc3F)C2)cn1)NO` [Example 7, (2E)-3-[5-({(3R)-1-[2-(2-fluorophenyl)ethyl]-3-piperidinyl}amino)-2-pyrazinyl]-N-hydroxyacrylamide dihydrochloride], the IC50 in test [1] stood at 0.79 nM; in test [2], 1.5 nM.
Consider `O=C(/C=C/c1cnc(N[C@@H]2CCN(CCc3ccccc3Cl)C2)cn1)NO` [Example 22, (2E)-3-[5-({(3R)-1-[2-(2-chlorophenyl)ethyl]-3-pyrrolidinyl}amino)-2-pyrazinyl]-N-hydroxyacrylamide dihydrochloride], for which the values for the IC50 in test [1] and in test [2] were 1.3 nM and 0.87 nM, respectively.
In the same order, the values of `O=C(/C=C/c1cnc(N[C@@H]2CCN(CC3(CO)CCCCC3)C2)cn1)NO` [Example 13, (2E)-N-hydroxy-3-(5-{[(3R)-1-{[1-(hydroxymethyl)cyclohexyl]methyl}-3-pyrrolidinyl]amino}-2-pyrazinyl)acrylamide dihydrochloride] are 4.7 nM and 1.9 nM.
In the case of `O=C(/C=C/c1cnc(N[C@@H]2CCN(CCc3cccs3)C2)cn1)NO` [Example 4, (2E)-N-hydroxy-3-[5-({(3R)-1-[2-(2-thienyl)ethyl]-3-pyrrolidinyl}amino)-2-pyrazinyl]acrylamide dihydrochloride], the IC50 came to 1.2 nM in test [1] and 3.6 nM in test [2].
In the same order, the values of `O=C(/C=C/c1cnc(N[C@@H]2CCN(CCCC3CCCCC3)C2)cn1)NO` [Example 29, (2E)-3-[5-({(3R)-1-(3-cyclohexylpropyl)-3-pyrrolidinyl}amino)-2-pyrazinyl]-N-hydroxyacrylamide dihydrochloride] are 3.3 nM and 6.5 nM.
The like results for `O=C(/C=C/c1cnc(N[C@@H]2CCCN(CCc3ccc(Cl)cc3)C2)cn1)NO` [Example 27, (2E)-3-[5-({(3R)-1-[2-(4-chlorophenyl)ethyl]-3-piperidinyl}amino)-2-pyrazinyl]-N-hydroxyacrylamide dihydrochloride] were, in that order, 0.38 nM and 0.92 nM.
The like results for `O=C(/C=C/c1cnc(N[C@@H]2CCN(CCc3ccc(F)cc3F)C2)cn1)NO` [Example 2, (2E)-3-[5-({(3R)-1-[2-(2,4-difluorophenyl)ethyl]-3-pyrrolidinyl}amino)-2-pyrazinyl]-N-hydroxyacrylamide dihydrochloride] were, in that order, 2.3 nM and 1.5 nM.
With `CN(C)c1ccccc1CN1CC[C@@H](Nc2cnc(/C=C/C(=O)NO)cn2)C1` [Example 10, (2E)-3-[5-({(3R)-1-[2-(dimethylamino)benzyl]-3-pyrrolidinyl}amino)-2-pyrazinyl]-N-hydroxyacrylamide trihydrochloride], the IC50 in test [1] turned out to be 3.2 nM; in test [2], 3 nM.

Values taken from patent US7750155B2, “Pyrazinyl hydroxyacrylamide compounds having an inhibitory effect on the activity of histone deacetylase” (Astellas Pharma Inc., priority 2006, dated 2010).
